# Experimental data published in patent publication US10179816B2, “Pharmaceutical compositions comprising an antibody which binds the human anti-Müllerian hormone receptor type II” (LABORATOIRE FRANCAIS DU FRACTIONNEMENT DES BIOTECHNOLOGIES, priority 2011, dated 2019).
# Where “and” joins values, the source holds several entries; their conditions need not be identical. Equal entries are not always repeated. Entries after “also recorded” stand apart in the source; their conditions may differ.
# Test system: Cov434-AMHRII Asc1a5 (cell line of human ovarian cancer transfected with cDNA AMHRII)
# Assay: Anti-tumour activity of 3C23K alone or with carboplatin in Cov434-AMHRII Asc1a5 xenograft (tumour volume, T/C ratio, statistical analysis)
# Assay type: in vivo, female Swiss nude mouse
# Protocol: The 3C23K antibody was evaluated according to the following scheme: 2 times per week for 6 weeks, for a total of 12 injections at about 10 mg/kg/injection, said administration regimen being designated below as “Q3-4D12”. Another group of mice was treated with an irrelevant antibody LFB-R565, administered at about 10 mg/kg/injection, according to the regimen Q3-4D12.
# Carboplatin was evaluated, at a sub-optimum dose, i.e. about 60 mg/kg/injection, according to the following scheme: once a week, for 4 weeks, said administration regimen being designated below as “Q7D4”.
# Carboplatin was also evaluated in combination with the 3C23K antibody or with the irrelevant antibody LFB-R565. Carboplatin was administered at about 60 mg/kg/injection according to the Q7D4 regimen and the 3C23K antibody or the irrelevant antibody LFB-R565 at about 10 mg/kg/injection according to the regimen Q3-4D12.
# The mice were randomized on D11, when the volume of the tumours was between 50 and 158 mm^3, and the treatments began on D13 (9 mice per group).
# The tumours were usually measured twice weekly.
# The curves of the individual volume of the tumours were plotted.
# In one experiment with 9 mice per group, the curves and analyses were therefore stopped when fewer than 8 values per group had been obtained (8 mice alive).
# A Kruskal-Wallis test was also carried out.
# [1] = D11, randomization, before treatment
substance,measurement,setting,value
"3C23K: mutated humanized 12G4 monoclonal antibody binding AMHR-II, produced by the 3C23K clone; light chain SEQ ID NO: 11, heavy chain SEQ ID NO: 13",Individual tumour volume,[1],98 mm^3 and 90 mm^3 and 61 mm^3 and 80 mm^3 and 57 mm^3 and 147 mm^3 and 113 mm^3 and 72 mm^3
same,Mean tumour volume,[1],88 mm^3
same,Median tumour volume,[1],80 mm^3
same,Individual tumour volume,D14,104 mm^3 and 179 mm^3 and 60 mm^3 and 72 mm^3 and 67 mm^3 and 216 mm^3 and 166 mm^3 and 84 mm^3
same,Mean tumour volume,D14,111 mm^3
same,Median tumour volume,D14,84 mm^3
same,Individual tumour volume,D18,72 mm^3 (2×) and 88 mm^3 and 36 mm^3 and 21 mm^3 and 41 mm^3 and 140 mm^3 and 80 mm^3
same,Mean tumour volume,D18,67 mm^3
same,Median tumour volume,D18,72 mm^3
same,Individual tumour volume,D22,60 mm^3 and 150 mm^3 and 30 mm^3 and 0 mm^3 and 36 mm^3 and 131 mm^3 and 77 mm^3 and 158 mm^3
same,Mean tumour volume,D22,79 mm^3
same,Median tumour volume,D22,70 mm^3
same,Individual tumour volume,D25,0 mm^3 (3×) and 126 mm^3 and 24 mm^3 and 180 mm^3 and 74 mm^3 and 216 mm^3
same,Mean tumour volume,D25,79 mm^3
same,Median tumour volume,D25,74 mm^3
same,Individual tumour volume,D29,0 mm^3 (2×) and 322 mm^3 and 27 mm^3 and 48 mm^3 and 225 mm^3 and 146 mm^3 and 385 mm^3
same,Mean tumour volume,D29,151 mm^3
same,Median tumour volume,D29,146 mm^3
same,Individual tumour volume,D32,0 mm^3 (2×) and 501 mm^3 and 27 mm^3 and 15 mm^3 and 275 mm^3 and 180 mm^3 and 644 mm^3
same,Mean tumour volume,D32,221 mm^3
same,Median tumour volume,D32,180 mm^3
same,Individual tumour volume,D36,0 mm^3 (3×) and 653 mm^3 and 87 mm^3 and 363 mm^3 and 182 mm^3 and 784 mm^3
same,Mean tumour volume,D36,278 mm^3
same,Median tumour volume,D36,182 mm^3
same,Individual tumour volume,D39,0 mm^3 (3×) and 784 mm^3 and 210 mm^3 and 315 mm^3 and 182 mm^3 and 1200 mm^3 and 546 mm^3
same,Mean tumour volume,D39,360 mm^3
same,Median tumour volume,D39,210 mm^3
same,Individual tumour volume,D43,0 mm^3 (3×) and 1171 mm^3 and 420 mm^3 and 631 mm^3 and 393 mm^3 and 1403 mm^3 and 731 mm^3
same,Mean tumour volume,D43,528 mm^3
same,Median tumour volume,D43,420 mm^3
same,Individual tumour volume,D46,0 mm^3 (3×) and 1683 mm^3 and 598 mm^3 and 504 mm^3 and 275 mm^3 and 1650 mm^3 and 518 mm^3
same,Mean tumour volume,D46,581 mm^3
same,Median tumour volume,D46,504 mm^3
same,Individual tumour volume,D49,0 mm^3 (3×) and 1870 mm^3 and 1188 mm^3 and 784 mm^3 and 655 mm^3 and 2646 mm^3 and 945 mm^3
same,Mean tumour volume,D49,899 mm^3
same,Median tumour volume,D49,784 mm^3
same,Anti-tumour activity (in words),"carboplatin study, comparator as stated in the sentence",significant anti-tumour activity; also recorded: anti-tumour effect greater than carboplatin; also recorded: exerts anti-tumour activity
same,T/C ratio,"relative to Control group, D11 (before treatment)",88%
same,T/C ratio,"relative to Control group, D14",52%
same,T/C ratio,"relative to Control group, D18",33%
same,T/C ratio,"relative to Control group, D22",18%
same,T/C ratio,"relative to Control group, D25",17%
same,T/C ratio,"relative to Control group, D29",23%
same,T/C ratio,"relative to Control group, D32",18%
same,T/C ratio,"relative to Control group, D36",12%
same,T/C ratio,"relative to LFB-R565, after D18 up to D36",less than 26%
same,T/C ratio,"relative to LFB-R565 group, D11 (before treatment)",99%
same,T/C ratio,"relative to LFB-R565 group, D14",55%
same,T/C ratio,"relative to LFB-R565 group, D18",41%
same,T/C ratio,"relative to LFB-R565 group, D22",26%
same,T/C ratio,"relative to LFB-R565 group, D25",18%
same,T/C ratio,"relative to LFB-R565 group, D29",21%
same,T/C ratio,"relative to LFB-R565 group, D32",26%
same,T/C ratio,"relative to LFB-R565 group, D36",10%
same,T/C ratio,"relative to carboplatin group, D11 (before treatment)",99%
same,T/C ratio,"relative to carboplatin group, D14",63%
same,T/C ratio,"relative to carboplatin group, D18",64%
same,T/C ratio,"relative to carboplatin group, D22",26%
same,T/C ratio,"relative to carboplatin group, D25",31%
same,T/C ratio,"relative to carboplatin group, D29",41%
same,T/C ratio,"relative to carboplatin group, D32",39%
same,T/C ratio,"relative to carboplatin group, D36",29%
same,T/C ratio,"relative to carboplatin group, D39",32%
same,T/C ratio,"relative to carboplatin group, D43",48%
same,T/C ratio,"relative to carboplatin group, from D22 to D39",less than 42%
same,T/C ratio,"relative to control, after D18 (from D22) up to D36",less than 23%
